Biological target: Replicase polyprotein 1ab (Severe acute respiratory syndrome coronavirus 2, UniProt P0DTD1)
Test: Inhibition of 6xHis-tagged SARS-CoV-2 3CLpro using DKE as substrate preincubated for 60 mins followed by substrate addition measured after 20 mins by fluorescence based assay

Structure (SMILES) | IC50 [nM]
C[C@H](NC(=O)C(F)F)C(=O)N(C)[C@@H](CC1CC1)C(=O)N1C[C@]2(C[C@H]1C#N)C(=O)Nc1ccccc12 | 21.2
CC(=O)N[C@H](C(=O)N1C[C@H]2[C@@H]([C@H]1C(=O)N[C@H](C#N)C[C@@H]1CCNC1=O)C2(C)C)c1cc(Cl)c(OCCN(C)C)c(Cl)c1 | 28200
C[C@H](NC(=O)C(F)(F)F)C(=O)N(C)[C@@H](CC1CC1)C(=O)N1C[C@]2(C[C@H]1C#N)C(=O)Nc1ccccc12 | 25.5
CN(C)CCOc1c(Cl)cc([C@H](NC(=O)CF)C(=O)N2C[C@H]3[C@@H]([C@H]2C(=O)N[C@H](C#N)C[C@@H]2CCNC2=O)C3(C)C)cc1Cl | 230
CC(C)C[C@@H](C(=O)N1C[C@]2(C[C@H]1C#N)C(=O)Nc1ccccc12)N(C)C(=O)[C@H](C)NC(=O)C(C)(C)F | 24.3
CC(C)C[C@@H](C(=O)N1C[C@]2(C[C@H]1C#N)C(=O)Nc1ccccc12)N(C)C(=O)[C@H](C)NC(=O)C(C)C | 29.8

Reference: ChEMBL document CHEMBL6078718, “F-CPI: A Multimodal Deep Learning Approach for Predicting Compound Bioactivity Changes Induced by Fluorine Substitution” (J Med Chem, 2025)
